A value given as a limit tells only on which side of the number the result lay.

This test concerns KRAS G12V dependent lung adenocarcinoma cell line, NCI-H441. In words: Cellular pERK (Thr202/Tyr204) FRET/HTRF assay. The class given is cell-based. To be noted: Homo sapiens, NCI-H441, pERK HTRF, NCI-H441 cells (KRAS G12V). In outline:
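Phospho-ERK1/2 (Thr202/Tyr204) quantified by two-antibody HTRF in lysed NCI-H441 cells. Cells seeded overnight, treated with test compounds for 1 hr at 37 °C against DMSO control, then lysed and detected at room temperature; IC50 obtained by curve fitting.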
On the technique in general: In TR-FRET formats the signal depends on donor and acceptor labels being close together.
The molecule `[2H]C([2H])(Oc1nc(N2CCOC[C@@H]3C[C@@H]32)c2cnc(-c3cc(N)cc4cc(F)c(F)c(C#C)c34)c(F)c2n1)[C@@]12CCCN1C[C@H](F)C2` [Example 61, 4-(4-((1S,7R)-5-Oxa-2-azabicyclo[5.1.0]octan-2-yl)-8-fluoro-2-(((2R,7aS)-2-fluorotetrahydro-1H-pyrrolizin-7a(5H)-yl)methoxy-d2)pyrido[4,3-d]pyrimidin-7-yl)-5-ethynyl-6,7-difluoronaphthalen-2-amine] returned an IC50 of 500 to 10000 nM. For `[2H]C([2H])(Oc1nc(N2CCC[C@@H]3[C@H](F)[C@@H]32)c2cnc(-c3cc(N)cc4cc(F)c(F)c(C#C)c34)c(F)c2n1)[C@@]12CCCN1C[C@H](F)C2` [Example 63, 5-Ethynyl-6,7-difluoro-4-(8-fluoro-4-((1R,6S,7S)-7-fluoro-2-azabicyclo[4.1.0]heptan-2-yl)-2-(((2R,7aS)-2-fluorotetrahydro-1H-pyrrolizin-7a(5H)-yl)methoxy-d2)pyrido[4,3-d]pyrimidin-7-yl)naphthalen-2-amine] the value was 500 to 10000 nM; for `[2H]C([2H])(Oc1nc(N2CCC[C@H]3[C@@H](F)[C@H]32)c2cnc(-c3cc(N)cc4cc(F)c(F)c(C#C)c34)c(F)c2n1)[C@@]12CCCN1C[C@H](F)C2` [Example 64, 5-Ethynyl-6,7-difluoro-4-(8-fluoro-4-((1S,6R,7R)-7-fluoro-2-azabicyclo[4.1.0]heptan-2-yl)-2-(((2R,7aS)-2-fluorotetrahydro-1H-pyrrolizin-7a(5H)-yl)methoxy-d2)pyrido[4,3-d]pyrimidin-7-yl)naphthalen-2-amine], 500 to 10000 nM; for `[2H]C([2H])([2H])Oc1c(F)c(F)cc2cc(N)cc(-c3ncc4c(N5CCCC[C@H]6[C@H](F)[C@H]65)nc(OC([2H])([2H])[C@@]56CCCN5C[C@H](F)C6)nc4c3F)c12` [Example 65, 6,7-Difluoro-4-(8-fluoro-4-((1S,7R,8S)-8-fluoro-2-azabicyclo[5.1.0]octan-2-yl)-2-(((2R,7aS)-2-fluorotetrahydro-1H-pyrrolizin-7a(5H)-yl)methoxy-d2)pyrido[4,3-d]pyrimidin-7-yl)-5-(methoxy-d3)naphthalen-2-amine], less than 50 nM. Turning to `[2H]C([2H])(Oc1nc(N2CCCC[C@H]3[C@H](F)[C@H]32)c2cnc(-c3cc(N)cc4cc(F)c(F)c(OCF)c34)c(F)c2n1)[C@@]12CCCN1C[C@H](F)C2` [Example 66, 6,7-Difluoro-4-(8-fluoro-4-((1S,7R,8S)-8-fluoro-2-azabicyclo[5.1.0]octan-2-yl)-2-(((2R,7aS)-2-fluorotetrahydro-1H-pyrrolizin-7a(5H)-yl)methoxy-d2)pyrido[4,3-d]pyrimidin-7-yl)-5-(fluoromethoxy) naphthalen-2-amine], the 50% inhibitory concentration (IC50) was less than 50 nM. To `[2H]C([2H])(Oc1nc(N2CCCC[C@H]3[C@H](F)[C@H]32)c2cnc(-c3cc(N)cc4cc(F)c(F)c(OC(F)F)c34)c(F)c2n1)[C@@]12CCCN1C[C@H](F)C2` [Example 67, 5-(Difluoromethoxy)-6,7-difluoro-4-(8-fluoro-4-((1S,7R,8S)-8-fluoro-2-azabicyclo[5.1.0]octan-2-yl)-2-(((2R,7aS)-2-fluorotetrahydro-1H-pyrrolizin-7a(5H)-yl)methoxy-d2)pyrido[4,3-d]pyrimidin-7-yl)naphthalen-2-amine] belongs less than 50 nM. To `[2H]C([2H])([2H])Oc1c(F)ccc2cccc(-c3ncc4c(N5CCCC[C@H]6[C@H](F)[C@H]65)nc(OC([2H])([2H])[C@@]56CCCN5C[C@H](F)C6)nc4c3F)c12` [Example 68, 8-Fluoro-7-(7-fluoro-8-(methoxy-d3)naphthalen-1-yl)-4-((1S,7R,8S)-8-fluoro-2-azabicyclo[5.1.0]octan-2-yl)-2-(((2R,7aS)-2-fluorotetrahydro-1H-pyrrolizin-7a(5H)-yl)methoxy-d2)pyrido[4,3-d]pyrimidine] belongs less than 50 nM; to `[2H]C([2H])([2H])Oc1c(F)c(F)c(F)c2cc(N)cc(-c3ncc4c(N5CCCC[C@H]6[C@H](F)[C@H]65)nc(OC([2H])([2H])[C@@]56CCCN5C[C@H](F)C6)nc4c3F)c12` [Example 69, 6,7,8-Trifluoro-4-(8-fluoro-4-((1S,7R,8S)-8-fluoro-2-azabicyclo[5.1.0]octan-2-yl)-2-(((2R,7aS)-2-fluorotetrahydro-1H-pyrrolizin-7a(5H)-yl)methoxy-d2)pyrido[4,3-d]pyrimidin-7-yl)-5-(methoxy-d3)naphthalen-2-amine], less than 50 nM. For `[2H]C([2H])(Oc1nc(N2CCCC[C@H]3[C@H](F)[C@H]32)c2cnc(-c3cc(N)cc4c(F)c(F)c(F)c(C#C)c34)c(F)c2n1)[C@@]12CCCN1C[C@H](F)C2` [Example 70, 5-Ethynyl-6,7,8-trifluoro-4-(8-fluoro-4-((1S,7R,8S)-8-fluoro-2-azabicyclo[5.1.0]octan-2-yl)-2-(((2R,7aS)-2-fluorotetrahydro-1H-pyrrolizin-7a(5H)-yl)methoxy-d2)pyrido[4,3-d]pyrimidin-7-yl)naphthalen-2-amine] the value was less than 50 nM; for `[2H]C([2H])(F)Oc1c(F)c(F)cc2cc(N)cc(-c3ncc4c(N5CCCC[C@H]6[C@H](F)[C@H]65)nc(OC([2H])([2H])[C@@]56CCCN5C[C@H](F)C6)nc4c3F)c12` [Example 71, 6,7-Difluoro-4-(8-fluoro-4-((1S,7R,8S)-8-fluoro-2-azabicyclo[5.1.0]octan-2-yl)-2-(((2R,7aS)-2-fluorotetrahydro-1H-pyrrolizin-7a(5H)-yl)methoxy-d2)pyrido[4,3-d]pyrimidin-7-yl)-5-(fluoromethoxy-d2)naphthalen-2-amine], less than 50 nM; for `[2H]C([2H])(F)Oc1c(F)ccc2cccc(-c3ncc4c(N5CCCC[C@H]6[C@H](F)[C@H]65)nc(OC([2H])([2H])[C@@]56CCCN5C[C@H](F)C6)nc4c3F)c12` [Example 72, 8-Fluoro-7-(7-fluoro-8-(fluoromethoxy-d2)naphthalen-1-yl)-4-((1S,7R,8S)-8-fluoro-2-azabicyclo[5.1.0]octan-2-yl)-2-(((2R,7aS)-2-fluorotetrahydro-1H-pyrrolizin-7a(5H)-yl)methoxy-d2)pyrido[4,3-d]pyrimidine], less than 50 nM. With `[2H]C([2H])(Oc1nc(N2CCCC[C@H]3[C@H](F)[C@H]32)c2cnc(-c3cccc4ccc(F)c(OCF)c34)c(F)c2n1)[C@@]12CCCN1C[C@H](F)C2` [Example 73, 8-Fluoro-7-(7-fluoro-8-(fluoromethoxy)naphthalen-1-yl)-4-((1S,7R,8S)-8-fluoro-2-azabicyclo[5.1.0]octan-2-yl)-2-(((2R,7aS)-2-fluorotetrahydro-1H-pyrrolizin-7a(5H)-yl)methoxy-d2)pyrido[4,3-d]pyrimidine], the concentration for half-maximal inhibition (IC50) was less than 50 nM. To `[2H]C([2H])([2H])Oc1c(F)c(F)cc2cc(N)cc(-c3ncc4c(N5CCCO[C@H]6[C@H](F)[C@H]65)nc(OC([2H])([2H])[C@@]56CCCN5C[C@H](F)C6)nc4c3F)c12` [Example 74, 6,7-Difluoro-4-(8-fluoro-4-((1R,7S,8R)-8-fluoro-2-oxa-6-azabicyclo[5.1.0]octan-6-yl)-2-(((2R,7aS)-2-fluorotetrahydro-1H-pyrrolizin-7a(5H)-yl)methoxy-d2)pyrido[4,3-d]pyrimidin-7-yl)-5-(methoxy-d3)naphthalen-2-amine] belongs less than 50 nM.

For `[2H]C([2H])(Oc1nc(N2CCCO[C@H]3[C@H](F)[C@H]32)c2cnc(-c3cccc4ccc(F)c(C#C)c34)c(F)c2n1)[C@@]12CCCN1C[C@H](F)C2` [Example 75, (1R,7S,8R)-6-(7-(8-Ethynyl-7-fluoronaphthalen-1-yl)-8-fluoro-2-(((2R,7aS)-2-fluorotetrahydro-1H-pyrrolizin-7a(5H)-yl)methoxy-d2)pyrido[4,3-d]pyrimidin-4-yl)-8-fluoro-2-oxa-6-azabicyclo[5.1.0]octane], the half-maximal inhibitory concentration (IC50) was less than 50 nM. To `[2H]C([2H])(Oc1nc(N2CCCO[C@H]3[C@H](F)[C@H]32)c2cnc(-c3cccc4cc(F)c(F)c(C#C)c34)c(F)c2n1)[C@@]12CCCN1C[C@H](F)C2` [Example 76, (1R,7S,8R)-6-(7-(8-Ethynyl-6,7-difluoronaphthalen-1-yl)-8-fluoro-2-(((2R,7aS)-2-fluorotetrahydro-1H-pyrrolizin-7a(5H)-yl)methoxy-d2)pyrido[4,3-d]pyrimidin-4-yl)-8-fluoro-2-oxa-6-azabicyclo[5.1.0]octane] belongs less than 50 nM. For `[2H]C([2H])([2H])Oc1c(F)c(F)c(F)c2cc(N)cc(-c3ncc4c(N5CCCO[C@H]6[C@H](F)[C@H]65)nc(OC([2H])([2H])[C@@]56CCCN5C[C@H](F)C6)nc4c3F)c12` [Example 77, 6,7,8-Trifluoro-4-(8-fluoro-4-((1R,7S,8R)-8-fluoro-2-oxa-6-azabicyclo[5.1.0]octan-6-yl)-2-(((2R,7aS)-2-fluorotetrahydro-1H-pyrrolizin-7a(5H)-yl)methoxy-d2)pyrido[4,3-d]pyrimidin-7-yl)-5-(methoxy-d3)naphthalen-2-amine], the concentration for half-maximal inhibition (IC50) was less than 50 nM. To `[2H]C([2H])(Oc1nc(N2CCCC[C@H]3[C@H](F)[C@H]32)c2cnc(-c3cccc4ccc(F)c(C#C)c34)c(F)c2n1)[C@@]12CCCN1C[C@H](F)C2` [Example 78, 7-(8-Ethynyl-7-fluoronaphthalen-1-yl)-8-fluoro-4-((1S,7R,8S)-8-fluoro-2-azabicyclo[5.1.0]octan-2-yl)-2-(((2R,7aS)-2-fluorotetrahydro-1H-pyrrolizin-7a(5H)-yl)methoxy-d2)pyrido[4,3-d]pyrimidine] belongs less than 50 nM; to `[2H]C([2H])(Oc1nc(N2CCCC[C@H]3[C@H](F)[C@H]32)c2cnc(-c3cccc4cc(F)c(F)c(C#C)c34)c(F)c2n1)[C@@]12CCCN1C[C@H](F)C2` [Example 79, 7-(8-Ethynyl-6,7-difluoronaphthalen-1-yl)-8-fluoro-4-((1S,7R,8S)-8-fluoro-2-azabicyclo[5.1.0]octan-2-yl)-2-(((2R,7aS)-2-fluorotetrahydro-1H-pyrrolizin-7a(5H)-yl)methoxy-d2)pyrido[4,3-d]pyrimidine], less than 50 nM.

What is called IC50 is the concentration that inhibits the measured activity by half.

These data come from patent publication US20250282799A1, “SUBSTITUTED PYRIDO[4,3-d]PYRIMIDINES AS KRAS MODULATORS” (Alterome Therapeutics, Inc., priority 2023, published 2025).
